Laboratory results published in US12172959B2, “Mono- or di-substituted indole derivatives as dengue viral replication inhibitors” (priority 2015, dated 2024).

Experiments:
DENV-1 strain TC974#666 = experiment: Tetravalent RT-qPCR assay Protocol A, serotype 1; type: cell-based; conditions: Dengue virus, DENV1, 72 h, RT-qPCR serotype 1 TC974#666, Vero cells, day 3
Protocol: (§1) The antiviral activity of the compounds of the invention was tested against DENV-1 strain TC974#666 (NCPV; Table 6), DENV-2 strain 16681 (Table 7), DENV-3 strain H87 (NCPV; Table 8) and DENV-4 strains H241 (NCPV; Table 9A) and SG/06K2270DK1/2005 (Eden; Table 9B) in a RT-qPCR assay. Therefore, Vero cells were infected with either DENV-1, or -2, or -3, or -4 in the presence or absence of test compounds. At day 3 post-infection, the cells were lysed and cell lysates were used to prepare cDNA of both a viral target (the 3′UTR of DENV; Table 2) and a cellular reference gene (β-actin, Table 2). Subsequently, a duplex real time PCR was performed on a Lightcycler480 instrument. The generated Cp value is inversely proportional to the amount of RNA expression of these targets. Inhibition of DENV replication by test compound results in a shift of Cp's for the 3′UTR gene. On the other hand, if a test compound is toxic to the cells, a similar effect on β-actin expression will be observed. The comparative ΔΔCp method is used to calculate EC50, which is based on the relative gene expression of the target gene (3′UTR) normalized with the cellular housekeeping gene (β-actin).
(§2) The culture medium consisted of minimal essential medium supplemented with 2% of heat-inactivated fetal calf serum, 0.04% gentamycin (50 mg/mL) and 2 mM of L-glutamine. Vero cells, obtained from ECACC, were suspended in culture medium and 75 μL/well was added in 96-well plates (10000 cells/well), which already contain the antiviral compounds. […] In addition, each plate contains wells which are assigned as virus controls (containing cells and virus in the absence of compound) and cell controls (containing cells in the absence of virus and compound). Once the cells were added in the plates, the plates were incubated in a fully humidified incubator (37° C., 5% CO2) until the next day. Dengue viruses serotype-1, 2, 3 and 4 were diluted in order to obtain a Cp of ˜22-24 in the assay. Therefore, 25 μL of virus suspension was added to all the wells containing test compound and to the wells assigned as virus control. In parallel, 25 μL of culture medium was added to the cell controls. Next, the plates were incubated for 3 days in a fully humidified incubator (37° C., 5% CO2). After 3 days, the supernatant was removed from the wells and the cells were washed twice with ice-cold PBS (˜100 μL). The cell pellets within the 96-well plates were stored at −80° C. for at least 1 day. Next, RNA was extracted using the Cells-to-CT™ lysis kit, according to the manufacturer's guideline (Life Technologies). The cell lysates can be stored at −80° C. or immediately used in the reverse transcription step.
In preparation of the reverse transcription step, mix A (table 3A) was prepared and 7.57 μL/well was dispensed in a 96-well plate. After addition of 5 μL of the cell lysates, a five minute denaturation step at 75° C. was performed (table 3B). Afterwards, 7.43 μL of mix B was added (table 3C) and the reverse transcription step was initiated (table 3D) to generate cDNA.
Finally, a RT-qPCR mix was prepared, mix C (table 4A), and 22.02 μL/well was dispensed in 96-well LightCycler qPCR plates to which 3 μL of cDNA was added and the qPCR was performed according to the conditions in table 4B on a LightCycler 480.
(§3) Using the LightCycler software and an in-house LIMS system, dose response curves for each compound were calculated and the half maximal effective concentration (EC50) and the half maximal cytotoxic concentration (CC50) were determined.

in vitro = type: cell-based; conditions: African green monkey, CC50
Protocol: as §1, §2, §3

Vero cells = conditions: African green monkey
DENV-2 16681 strain = experiment: DENV-2 antiviral assay (eGFP fluorescence, Vero cells); type: cell-based, Dengue virus; conditions: DENV-2 16681 eGFP, MOI 0.5, 3 days
Outline: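 eGFP-labelled DENV-2 16681 infected Vero cells (2500/well, MEM + 2% FCS) at MOI 0.5, one day after seeding onto 9-step 5-fold compound dilutions. After 3 days at 37 °C, eGFP fluorescence read at 488 nm; % inhibition normalised to virus and cell controls, EC50 by linear interpolation.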

Compound	EC50 (DENV-1 strain TC974#666) [nM]	CC50 at 3 days (in vitro) [nM]	CC50 (Vero cells) [nM]	EC50 (DENV-2 16681 strain) [nM]
COc1cc(NC(C(=O)c2c[nH]c3cc(F)ccc23)c2ccc(Cl)cc2OC)cc(S(C)(=O)=O)c1 (single isomer, unassigned) [Compound 1A, 2-(4-chloro-2-methoxyphenyl)-1-(6-fluoro-1H-indol-3-yl)-2-((3-methoxy-5-(methylsulfonyl)phenyl)amino)ethanone]	2.5	5000	4300	0.26
COc1cc(NC(C(=O)c2c[nH]c3c(C)c(F)ccc23)c2ccc(Cl)cc2OC)cc(S(C)(=O)=O)c1 (single isomer, unassigned) [Compound 2A, 2-(4-chloro-2-methoxyphenyl)-1-(6-fluoro-7-methyl-1H-indol-3-yl)-2-((3-methoxy-5-(methylsulfonyl)phenyl)amino)ethanone]	2.4	5300	4800	0.26
COc1cc(NC(C(=O)c2c[nH]c3cc(OC)c(C)cc23)c2ccc(Cl)cc2OC)cc(S(C)(=O)=O)c1 (single isomer, unassigned) [Compound 4A, 2-(4-chloro-2-methoxyphenyl)-2-((3-methoxy-5-(methyl-sulfonyl)phenyl)amino)-1-(6-methoxy-5-methyl-1H-indol-3-yl)ethanone]	0.97	–	4200	0.27
COc1cc(NC(C(=O)c2c[nH]c3cc(OC)c(F)cc23)c2ccc(Cl)cc2OC)cc(S(C)(=O)=O)c1 (single isomer, unassigned) [Compound 5A, 2-(4-chloro-2-methoxyphenyl)-1-(5-fluoro-6-methoxy-1H-indol-3-yl)-2-((3-methoxy-5-(methylsulfonyl)phenyl)amino)ethanone]	3.6	5200	5000	0.41
COc1cc(NC(C(=O)c2c[nH]c3c(C)c(OC)ccc23)c2ccc(Cl)cc2OC)cc(S(C)(=O)=O)c1 (single isomer, unassigned) [Compound 6A, 2-(4-chloro-2-methoxyphenyl)-2-((3-methoxy-5-(methyl-sulfonyl)phenyl)amino)-1-(6-methoxy-7-methyl-1H-indol-3-yl)ethanone]	1.6	> 10000	> 25000	0.068
